Assay results as given in patent US9820487B2, “Abscinazole” (NATIONAL UNIVERSITY CORPORATION SHIZUOKA UNIVERSITY, priority 2014, dated 2017).

Key:
[1] = target: T1, ent-kaurene oxidase CYP701A6 (Oryza sativa subsp. japonica, UniProt Q5Z5R4); assay: Ent-kaurene oxidase CYP701A6 inhibition test; format: biochemical; conditions: CYP701A6 + NADPH-P450 reductase ATR2, substrate ent-kaurene, 30° C. 30 minutes; IC50 calculated from two concentrations
T1 sequence (Q5Z5R4 1-505): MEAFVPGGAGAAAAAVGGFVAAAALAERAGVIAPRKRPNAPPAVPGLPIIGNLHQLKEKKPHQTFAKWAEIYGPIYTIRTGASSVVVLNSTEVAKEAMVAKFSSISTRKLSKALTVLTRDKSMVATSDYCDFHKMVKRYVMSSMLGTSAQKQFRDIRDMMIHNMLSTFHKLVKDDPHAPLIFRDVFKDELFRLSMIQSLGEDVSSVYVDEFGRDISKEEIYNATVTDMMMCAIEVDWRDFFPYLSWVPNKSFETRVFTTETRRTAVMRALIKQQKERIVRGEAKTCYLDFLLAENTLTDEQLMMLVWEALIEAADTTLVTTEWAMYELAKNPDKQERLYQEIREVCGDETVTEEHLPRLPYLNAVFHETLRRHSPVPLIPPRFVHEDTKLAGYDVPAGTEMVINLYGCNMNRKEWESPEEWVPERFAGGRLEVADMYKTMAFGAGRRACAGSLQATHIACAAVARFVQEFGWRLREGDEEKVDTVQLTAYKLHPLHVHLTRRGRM
Description: To a 1.5 mL microtube, 8 μL of an aqueous solution of 500 μM ent-kaurene as a substrate in 45% cyclodextrin and 8μL of a solution of the sample in dimethylformamide were put. 10 μL of 2.32 μM ent-kaurene oxidase CYP701A6 and 10 μL of 4.6 unit/mL NADPH-P450 reductase ATR2, heated at 30° C. for 5 minutes in advance, were added thereto. 304 μL of ultra-pure water, 40 μL of 500 mM KPB and 20 μL of an aqueous solution of 20 mM NADPH, heated at 30° C. for 10 minutes in advance, were added thereto thereby starting the enzyme reaction. The reaction was carried out at 30° C. for 30 minutes at a rotation speed of 1000 rpm and 100 μL of 1 M hydrochloric acid was added thereto thereby terminating the reaction. 5 μL of 10 μM abietic acid as the internal standard was added thereto, and the solution was extracted with 400 μL of ethyl acetate. The resultant was dried over sodium sulfate and subsequently concentrated under reduced pressure. 50 μL of methanol and 5 μL of 2 M trimethyl silyldiazomethane were added thereto to methylate carboxylic acid and the resultant was thy-solidified using nitrogen. The solidified product was dissolved in 150 μL of hexane and 1 μL of the resultant solution was subjected to a GC-MS analysis to detect the enzyme metabolite ent-kaurene acid. The CYP701A6 inhibition rate of the samples was calculated in accordance with the following formula (4). Note that the peak area of ent-kaurene acid was calculated from the peak area of m/z 273 and that ent-kaurene acid was identified from the area ratio of m/z 257, 213. The peak area of abietic acid was calculated from the area of m/z 256, and abietic acid was identified from the area ratio of m/z 316. Note that dimethylformamide was used for the control in place of the sample solution. Each sample was tested with two different concentrations to act late the 50% inhibition concentration (IC50) based on the enzyme inhibition rates thereof.
Enzyme inhibition rate (%)={1-(Ent-kaurene acid peak area of each sample/Abietic acid peak area of each sample/(Ent-kaurene acid peak area of control/Abietic acid peak area of control }×100 . . . (4)

[2] = test system: thale cress (Arabidopsis thaliaria, Col-0); assay: Thale cress growth test (survival after dry treatment); format: in vivo
Description: Five plant bodies of 2-week old thale cress (Arabidopsis thaliaria, Col-0) grown in Gelzan medium (containing MS medium mixed salts and 1% sucrose) were transplanted to a 200 mL-plastic pot containing a culture soil obtained by mixing vermiculite and premix in 1:1 and grown at 22° C. for 2 weeks under the condition of 16 hour light period—8 hour dark period. At this stage, the moisture content was adjusted so that the mass of the pot containing the plant and the culture soil was to be about 150 g. 50 ml, of a 50 μM aqueous solution of the (−) form of Example 1 (containing 0.05% Tween-20 and 0.2% MeOH) was sprayed to the above-ground part on 27 pots (135 seedlings of thale cress in total) once a day for 3 days. The pots on which above-ground part were sprayed with 50 mL of an aqueous solution free from the above compound (containing 0.05% Tween-20 and 0.2% MeOH) once a day for 3 days were used as controls. The pots were dry-treated for 12 days and subsequently watered, and the number of plant bodies survived 3 days later was counted, from which the survival rate was calculated in accordance with the following formula (5).
Survival rate (%)=Number of plant bodies survived (piece)/Total number of plant bodies (piece)×100 . . .(5)

[3] = test system: seeds of thale cress (Arabidopsis thaliana, Col-0); assay: Thale cress seed germination inhibition test (2); format: in vivo; conditions: 120 hours after seed plantation (FIG. 3)
Description: Seeds of thale cress (Arabidopsis thaliana, Col-0) were immersed in […] an aqueous solution of 70% ethanol for 30 minutes, subsequently in 500 μL of 100% ethanol for 1 minute, washed three times in 1 mL of distilled water, then immersed in distilled water and, in a dark place, verbalized at 4° C. for 3 days. A solution of the sample in methanol and a solution of ABA in methanol were put in a 1.5 mL microtube, and methanol was removed therefrom under reduced pressure. An aqueous solution of 0.5% agar (containing 1/2 MS medium inorganic salts) at 70° C. was added thereto, followed by stirring the resultant. The obtained solution was placed in a 96-well plate to provide the medium containing the sample. 20 to 30 vernalized seeds of thale cress were planted in each well and cultured at 22° C. under continuous light to monitor the number of seeds germinated over time. The germination rate was calculated in accordance with the following formula (1). Note that the medium prepared using methanol in the same manner as above was used as an untreated control and a germination rate of 100% was achieved 72 hours later from the seed plantation. Germination rates 72 hours later from the seed plantation are shown in FIG. 1 and initial growth conditions of thale cress 120 hours later are shown in FIG. 2.
Germination rate (%)=Number of seeds germinated/Number of seeds planted×100 . . . (1) […]

COCCOCCOCCOCC#Cc1cccc(/C=C(\[C@@H](O)C(C)(C)C)n2cncn2)c1 [Example 1 (−) Form, (−)-(S)-(E)-1-(3-(2,5,8,11-tetraoxatetradec-13-yn-14-yl)phenyl)-4,4-dimethyl-2-(1H-1,2,4-triazol-1-yl)pent-1-en-3-ol]
potency estimated from few doses [1]: 780 nM | survival rate after dry treatment ([2]; 50 μM aqueous solution sprayed once a day for 3 days, dry-treated 12 days, watered, counted 3 days later, control 15%): 75% | withering due to dryness ([2]; sprayed to thale cress, 50 μM, dry treatment 12 days): reduced | seed germination inhibition compared with (−) form of Comparative Example 1 [3]: can inhibit the seed germination even in lower concentrations
